Assay: Solubility in the physiological pH range
Format: physicochemical
Details: aqueous buffer; physiological pH range of 2-6.8

SMILES: Cn1c(C2(NC(=O)c3ccc4c(C5CCCC5)c(-c5ncc(Br)cn5)n(C)c4c3)CCC2)nc2ccc(/C=C/C(=O)O)cc21 [Compound (1), (E)-3-[2-(1-{[2-(5-Bromo-pyrimidin-2-yl)-3-cyclopentyl-1-methyl-1H-indole-6-carbonyl]-amino}-cyclobutyl)-3-methyl-3H-benzimidazol-5-yl]-acrylic acid]
- solubility: < 0.2 µg/mL
